The assay deals with xylanase Shearzyme. The assay is described as follows: Burst active site titration of xylanase. It is filed as biochemical. The following applies: for Burst B: pH 5.0, room temperature. Here is the method: The synthesized burst active site titrant 2,4-dinitrophenyl 2-deoxy-2-flouro-β-D-xylopyranoside was dissolved in Milli Q water. 100 μl dissolved titrant was mixed with 50 μl assay buffer (50 mM sodium acetate, 0.0225% Brij 35, pH 5.0) and 50 μl of a purified sample of the commercial xylanase Shearzyme (available from Novozymes) diluted in Milli Q water in the wells of a microtiter plate. Final concentrations of 2,4-dinitrophenyl 2-deoxy-2-flouro-β-D-xylopyranoside were 0.5 mM and 1 mM, whereas the xylanase was added to give final absorbances at 280 nm of 13.4, 6.7 and 3.3. After mixing, absorbance was read at 405 nm at room temperature every 7 min for 30 hours using a SpectraMax Plus (Molecular Devices) microtiter plate reader. After subtraction of absorbances read in wells with same concentration of titrant but without enzyme, the measurements were fitted to the equation: A405=B*(1−exp(−(t+LT)*ln(2)/T1/2))+S*(t+LT)
where A405 is the absorbance at 405 nm, B is the burst in absorbance at 405 nm, t is the time from first measurement of absorbance, LT is the lag time from mixing of the reagents to first measurement of absorbance, T1/2 is the half time for the exponential burst phase and S is the slope due to hydrolysis of the enzyme 2-deoxy-2-fluoro-β-D-xylopyranose complex.

Setting [1] is: Xylanase A280 3.3, titrant 0.5 mM.
[2] abbreviates: Xylanase A280 3.3, titrant 1 mM.
The mark [3] stands for this setting: Xylanase A280 6.7, titrant 0.5 mM.
Where [4] appears, read: Xylanase A280 6.7, titrant 1 mM.
Setting [5] is: Xylanase A280 13.4, titrant 0.5 mM.
Where [6] appears, read: Xylanase A280 13.4, titrant 1 mM.

This note sets out measurements from patent US20060205028A1, “Active-site titration of glycosyl hydrolases” (Novozymes A/S, priority 2003, published 2006).

As for `O=[N+]([O-])c1ccc(O[C@@H]2OC[C@@H](O)[C@H](O)[C@H]2F)c([N+](=O)[O-])c1` [2,4-dinitrophenyl 2-deoxy-2-flouro-β-D-xylopyranoside], the “Slope S (hydrolysis of the enzyme 2-deoxy-2-fluoro-β-D-xylopyranose complex)” value turned out to be 0.00 A405/h under setting [1]; 0.00 A405/h under setting [2]; 0.00 A405/h under setting [3]; 0.00 A405/h under setting [4]; 0.00 A405/h under setting [5]; 0.00 A405/h under setting [6]. In addition, the “Burst B” value turned out to be 0.24 A405 under setting [1]; 0.23 A405 under setting [2]; 0.47 A405 under setting [3]; 0.48 A405 under setting [4]; 0.84 A405 under setting [5]; 0.90 A405 under setting [6].
